Key:
Format in all cases: functional
MDA-MB-231 [1] = test: Growth inhibition of human MDA-MB-231 cells assessed as cell growth at 10^-7 M after 48 hrs by sulforhodamine B assay; conditions: MDA-MB-231, 48 h, read-out: Activity
HT-29 [2] = test: Growth inhibition of human HT-29 cells assessed as cell growth at 10^-6 M after 48 hrs by sulforhodamine B assay; conditions: HT-29, 48 h, read-out: Activity
CAKI-1 = test: Growth inhibition of human CAKI-1 cells assessed as cell growth at 10^-5 M after 48 hrs by sulforhodamine B assay; conditions: CAKI-1, 48 h, read-out: Activity
HL-60(TB) [3] = test: Growth inhibition of human HL-60(TB) cells assessed as cell growth at 10^-4 M after 48 hrs by sulforhodamine B assay; conditions: HL-60, 48 h, read-out: Activity
CCRF-CEM = test: Growth inhibition of human CCRF-CEM cells assessed as cell growth at 10^-6 M after 48 hrs by sulforhodamine B assay; conditions: read-out: Activity
SK-MEL-5 = test: Growth inhibition of human SK-MEL-5 cells assessed as cell growth at 10^-5 M after 48 hrs by sulforhodamine B assay; conditions: SK-MEL-5, 48 h, read-out: Activity
IGROV-1 [4] = test: Growth inhibition of human IGROV1 cells assessed as cell growth at 10^-4 M after 48 hrs by sulforhodamine B assay; conditions: IGROV-1, 48 h, read-out: Activity
SK-MEL-28 = test: Growth inhibition of human SK-MEL-28 cells assessed as cell growth at 10^-8 M after 48 hrs by sulforhodamine B assay; conditions: SK-MEL-28, 48 h, read-out: Activity
HCT-116 = test: Growth inhibition of human HCT116 cells assessed as cell growth at 10^-6 M after 48 hrs by sulforhodamine B assay; conditions: HCT-116, 48 h, read-out: Activity
HL-60(TB) [5] = test: Growth inhibition of human HL-60(TB) cells assessed as cell growth at 10^-8 M after 48 hrs by sulforhodamine B assay; conditions: HL-60, 48 h, read-out: Activity
HCT-15 [6] = test: Growth inhibition of human HCT15 cells assessed as cell growth at 10^-4 M after 48 hrs by sulforhodamine B assay; conditions: HCT-15, 48 h, read-out: Activity
COLO 205 = test: Growth inhibition of human COLO205 cells assessed as cell growth at 10^-6 M after 48 hrs by sulforhodamine B assay; conditions: COLO 205, 48 h, read-out: Activity
[7] = Growth inhibition of human Hs 578T cells assessed as cell growth at 10^-5 M after 48 hrs by sulforhodamine B assay; conditions: read-out: Activity
HT-29 [8] = test: Growth inhibition of human HT-29 cells assessed as cell growth at 10^-8 M after 48 hrs by sulforhodamine B assay; conditions: HT-29, 48 h, read-out: Activity
OVCAR-5 [9] = test: Growth inhibition of human OVCAR5 cells assessed as cell growth at 10^-6 M after 48 hrs by sulforhodamine B assay; conditions: OVCAR-5, 48 h, read-out: Activity
NCI-H522 = test: Growth inhibition of human NCI-H522 cells assessed as cell growth at 10^-6 M after 48 hrs by sulforhodamine B assay; conditions: NCI-H522, 48 h, read-out: Activity
OVCAR-8 = test: Growth inhibition of human OVCAR8 cells assessed as cell growth at 10^-8 M after 48 hrs by sulforhodamine B assay; conditions: OVCAR-8, 48 h, read-out: Activity
HOP-62 = test: Growth inhibition of human HOP62 cells assessed as cell growth at 10^-5 M after 48 hrs by sulforhodamine B assay; conditions: HOP-62, 48 h, read-out: Activity
NCI-H460 = test: Growth inhibition of human NCI-H460 cells assessed as cell growth at 10^-8 M after 48 hrs by sulforhodamine B assay; conditions: NCI-H460, 48 h, read-out: Activity
TK-10 = test: Growth inhibition of human TK10 cells assessed as cell growth at 10^-4 M after 48 hrs by sulforhodamine B assay; conditions: TK-10, 48 h, read-out: Activity
HT-29 [10] = test: Growth inhibition of human HT-29 cells assessed as cell growth at 10^-5 M after 48 hrs by sulforhodamine B assay; conditions: HT-29, 48 h, read-out: Activity
MDA-MB-231 [11] = test: Growth inhibition of human MDA-MB-231 cells assessed as cell growth at 10^-6 M after 48 hrs by sulforhodamine B assay; conditions: MDA-MB-231, 48 h, read-out: Activity
UO-31 [12] = test: Growth inhibition of human UO31 cells assessed as cell growth at 10^-5 M after 48 hrs by sulforhodamine B assay; conditions: UO-31, 48 h, read-out: Activity
IGROV-1 [13] = test: Growth inhibition of human IGROV1 cells assessed as cell growth at 10^-6 M after 48 hrs by sulforhodamine B assay; conditions: IGROV-1, 48 h, read-out: Activity
[14] = Growth inhibition of human NCI-ADR-RES cells assessed as cell growth at 10^-5 M after 48 hrs by sulforhodamine B assay; conditions: read-out: Activity
HCT-15 [15] = test: Growth inhibition of human HCT15 cells assessed as cell growth at 10^-5 M after 48 hrs by sulforhodamine B assay; conditions: HCT-15, 48 h, read-out: Activity
DU-145 [16] = test: Growth inhibition of human DU145 cells assessed as cell growth at 10^-6 M after 48 hrs by sulforhodamine B assay; conditions: DU-145, 48 h, read-out: Activity
SR = test: Growth inhibition of human SR cells assessed as cell growth at 10^-5 M after 48 hrs by sulforhodamine B assay; conditions: read-out: Activity
DU-145 [17] = test: Growth inhibition of human DU145 cells assessed as cell growth at 10^-4 M after 48 hrs by sulforhodamine B assay; conditions: DU-145, 48 h, read-out: Activity
MDA-MB-468 = test: Growth inhibition of human MDA-MB-468 cells assessed as cell growth at 10^-6 M after 48 hrs by sulforhodamine B assay; conditions: MDA-MB-468, 48 h, read-out: Activity
SNB-75 = test: Growth inhibition of human SNB75 cells assessed as cell growth at 10^-4 M after 48 hrs by sulforhodamine B assay; conditions: SNB-75, 48 h, read-out: Activity
[18] = Growth inhibition of human HCC2998 cells assessed as cell growth at 10^-4 M after 48 hrs by sulforhodamine B assay; conditions: HCC 2998, 48 h, read-out: Activity
SK-MEL-2 = test: Growth inhibition of human SK-MEL-2 cells assessed as cell growth at 10^-8 M after 48 hrs by sulforhodamine B assay; conditions: SK-MEL-2, 48 h, read-out: Activity
HCT-15 [19] = test: Growth inhibition of human HCT15 cells assessed as cell growth at 10^-6 M after 48 hrs by sulforhodamine B assay; conditions: HCT-15, 48 h, read-out: Activity
UO-31 [20] = test: Growth inhibition of human UO31 cells assessed as cell growth at 10^-7 M after 48 hrs by sulforhodamine B assay; conditions: UO-31, 48 h, read-out: Activity
786-0 = test: Growth inhibition of human 786-0 cells assessed as cell growth at 10^-4 M after 48 hrs by sulforhodamine B assay; conditions: 786-0, 48 h, read-out: Activity
OVCAR-5 [21] = test: Growth inhibition of human OVCAR5 cells assessed as cell growth at 10^-4 M after 48 hrs by sulforhodamine B assay; conditions: OVCAR-5, 48 h, read-out: Activity
MCF7 = test: Growth inhibition of human MCF7 cells assessed as cell growth at 10^-5 M after 48 hrs by sulforhodamine B assay; conditions: MCF7, 48 h, read-out: Activity

| Compound | growth at 0.1 µM (MDA-MB-231 [1]) [%] | growth at 1 µM (HT-29 [2]) [%] | growth at 10 µM (CAKI-1) [%] | growth at 100 µM (HL-60(TB) [3]) [%] | growth at 1 µM (CCRF-CEM) [%] | growth at 10 µM (SK-MEL-5) [%] | growth at 100 µM (IGROV-1 [4]) [%] | growth at 0.01 µM (SK-MEL-28) [%] | growth at 1 µM (HCT-116) [%] | growth at 0.01 µM (HL-60(TB) [5]) [%] | growth at 100 µM (HCT-15 [6]) [%] | growth at 1 µM (COLO 205) [%] | growth at 10 µM [7] [%] | growth at 0.01 µM (HT-29 [8]) [%] | growth at 1 µM (OVCAR-5 [9]) [%] | growth at 1 µM (NCI-H522) [%] | growth at 0.01 µM (OVCAR-8) [%] | growth at 10 µM (HOP-62) [%] | growth at 0.01 µM (NCI-H460) [%] | growth at 100 µM (TK-10) [%] | other results |
| --- | --- | --- | --- | --- | --- | --- | --- | --- | --- | --- | --- | --- | --- | --- | --- | --- | --- | --- | --- | --- | --- |
| COc1cc(-c2nn(-c3cccc(NC(=O)c4ccc(N5CCOCC5)c(C(F)(F)F)c4)c3)cc2-c2ccncc2)ccc1Cl | 79 | 9 | -2 | 6 | 12 | -55 | -15 | 100 | 33 | 109 | 2 | 5 | 3 | 98 | 57 | 17 | 98 | 31 | 100 | -7 | growth at 10 µM (HT-29 [10]): -43%; growth at 1 µM (MDA-MB-231 [11]): 18%; growth at 10 µM (UO-31 [12]): -5%; growth at 1 µM (IGROV-1 [13]): 33%; growth at 10 µM [14]: 2%; growth at 10 µM (HCT-15 [15]): 7%; growth at 1 µM (DU-145 [16]): 16%; growth at 10 µM (SR): 4%; growth at 100 µM (DU-145 [17]): 2%; growth at 1 µM (MDA-MB-468): -9%; growth at 100 µM (SNB-75): 2%; growth at 100 µM [18]: -46%; growth at 0.01 µM (SK-MEL-2): 111%; growth at 1 µM (HCT-15 [19]): 27%; growth at 0.1 µM (UO-31 [20]): 64%; growth at 100 µM (786-0): 3%; growth at 100 µM (OVCAR-5 [21]): 2%; growth at 10 µM (MCF7): 8% |
| COc1cc(-c2nn(-c3cccc(NC(=O)c4ccccc4)c3)cc2-c2ccncc2)ccc1Cl | 101 | 17 | 14 | 16 | 27 | -60 | 17 | 99 | 31 | 96 | 12 | 32 | 18 | 98 | 87 | 15 | 98 | 48 | 102 | 23 | growth at 10 µM (HT-29 [10]): 7%; growth at 1 µM (MDA-MB-231 [11]): 53%; growth at 10 µM (UO-31 [12]): 18%; growth at 1 µM (IGROV-1 [13]): 35%; growth at 10 µM [14]: 5%; growth at 10 µM (HCT-15 [15]): 17%; growth at 1 µM (DU-145 [16]): 44%; growth at 10 µM (SR): 2%; growth at 100 µM (DU-145 [17]): -5%; growth at 1 µM (MDA-MB-468): 17%; growth at 100 µM (SNB-75): 11%; growth at 100 µM [18]: -13%; growth at 0.01 µM (SK-MEL-2): 93%; growth at 1 µM (HCT-15 [19]): 40%; growth at 0.1 µM (UO-31 [20]): 81%; growth at 100 µM (786-0): 18%; growth at 100 µM (OVCAR-5 [21]): 8%; growth at 10 µM (MCF7): 10% |
